Assay results as given in PubChem BioAssay AID256 (DTP/NCI, 2004).
Values joined by “and” are separate entries in the source; they are usually repeats but may differ in a detail not shown here. Identical values can stand only once. Inconclusive results and toxic doses are left out.

Test system: CD2F1 mice, L1210 leukemia ip, survival T/C
Test: NCI In Vivo Anticancer Drug Screen. Data for tumor model L1210 Leukemia (intraperitoneal) in CD2F1 (CDF1) mice
Conditions: higher = longer survival
In short: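 Vehicle-treated tumor-bearing mice served as controls (C) for compound-treated mice (T). Reported figure is T divided by C.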

[1] = endpoint: mean survival time, dose: 100.0 mg/kg/injection, schedule: Q01DX009 (ip), vehicle: saline with Tween-80
[2] = endpoint: mean survival time, dose: 200.0 mg/kg/injection, schedule: Q01DX009 (ip), vehicle: saline with Tween-80
[3] = endpoint: mean survival time, dose: 50.0 mg/kg/injection, schedule: Q01DX009 (ip), vehicle: saline
[4] = endpoint: mean survival time, dose: 100.0 mg/kg/injection, schedule: Q04DX002 (ip), vehicle: saline with Tween-80
[5] = endpoint: mean survival time, dose: 200.0 mg/kg/injection, schedule: Q04DX002 (ip), vehicle: saline with Tween-80
[6] = endpoint: mean survival time, dose: 400.0 mg/kg/injection, schedule: Q04DX002 (ip), vehicle: saline with Tween-80
[7] = endpoint: mean survival time, dose: 75.0 mg/kg/injection, schedule: Q01DX001 (ip), vehicle: saline
[8] = endpoint: mean survival time, dose: 150.0 mg/kg/injection, schedule: Q01DX001 (ip), vehicle: saline
[9] = endpoint: mean survival time, dose: 100.0 mg/kg/injection, schedule: Q04DX003 (ip), vehicle: saline with Tween-80
[10] = endpoint: mean survival time, dose: 200.0 mg/kg/injection, schedule: Q04DX003 (ip), vehicle: saline with Tween-80
[11] = endpoint: mean survival time, dose: 400.0 mg/kg/injection, schedule: Q04DX003 (ip), vehicle: saline with Tween-80

## CC(C)N=C1C([O-])=N[N+](C)(C)N1C(C)C
[1]
  T/C: 106 % of control
endpoint: mean survival time, dose: 100.0 mg/kg/injection, schedule: Q04DX003 (ip), vehicle: saline
  T/C: 95 % of control
[2]
  T/C: 93 % of control
endpoint: mean survival time, dose: 200.0 mg/kg/injection, schedule: Q04DX003 (ip), vehicle: saline
  T/C: 98 % of control
endpoint: mean survival time, dose: 400.0 mg/kg/injection, schedule: Q01DX009 (ip), vehicle: saline with Tween-80
  T/C: 98 % of control
endpoint: mean survival time, dose: 400.0 mg/kg/injection, schedule: Q04DX003 (ip), vehicle: saline
  T/C: 110 % of control

## CCOc1ccc2c(c1)c(CC(=O)O)cn2C
endpoint: mean survival time, dose: 100.0 mg/kg/injection, schedule: Q01DX001 (ip), vehicle: other
  T/C: 98 % of control
endpoint: mean survival time, dose: 200.0 mg/kg/injection, schedule: Q01DX001 (ip), vehicle: other
  T/C: 101 % of control
endpoint: mean survival time, dose: 400.0 mg/kg/injection, schedule: Q01DX001 (ip), vehicle: other
  T/C: 98 % of control

## O=C(O)CN1C(=O)CNC12CCCCC2
endpoint: mean survival time, dose: 100.0 mg/kg/injection, schedule: Q04DX003 (ip), vehicle: other
  T/C: 102 % of control
endpoint: mean survival time, dose: 200.0 mg/kg/injection, schedule: Q04DX003 (ip), vehicle: other
  T/C: 88 % of control
endpoint: mean survival time, dose: 400.0 mg/kg/injection, schedule: Q04DX003 (ip), vehicle: other
  T/C: 104 % of control

## CCOC(=O)NC(C)(C)CN(C(=O)OCC)C(C)(C)CO
[3]
  T/C: 102 % of control
endpoint: mean survival time, dose: 100.0 mg/kg/injection, schedule: Q01DX009 (ip), vehicle: saline
  T/C: 98 % of control

## O=[N+]([O-])c1cc(Cl)ccc1O
[1]
  T/C: 93 % of control
[2]
  T/C: 90 % of control

## CC(=O)C[n+]1ccc(C)cc1Sc1ccccc1C
endpoint: median survival time, dose: 25.0 mg/kg/injection, schedule: Q01DX009 (ip), vehicle: saline with Tween-80
  T/C: 98 % of control
endpoint: median survival time, dose: 50.0 mg/kg/injection, schedule: Q01DX009 (ip), vehicle: saline with Tween-80
  T/C: 96 % of control
endpoint: median survival time, dose: 100.0 mg/kg/injection, schedule: Q01DX009 (ip), vehicle: saline with Tween-80
  T/C: 98 % of control

## COc1cc2c3c(cccc3c1)C(=O)N(CCN(C)C)C2=O
endpoint: mean survival time, dose: 5.0 mg/kg/injection, schedule: Q01DX009 (ip), vehicle: saline with Tween-80
  T/C: 98 % of control and 100 % of control
endpoint: mean survival time, dose: 10.0 mg/kg/injection, schedule: Q01DX009 (ip), vehicle: saline with Tween-80
  T/C: 98 % of control and 102 % of control
endpoint: mean survival time, dose: 20.0 mg/kg/injection, schedule: Q01DX009 (ip), vehicle: saline with Tween-80
  T/C: 97 % of control and 101 % of control
endpoint: mean survival time, dose: 40.0 mg/kg/injection, schedule: Q01DX009 (ip), vehicle: saline with Tween-80
  T/C: 100 % of control and 108 % of control
endpoint: mean survival time, dose: 80.0 mg/kg/injection, schedule: Q01DX009 (ip), vehicle: saline with Tween-80
  T/C: 103 % of control and 110 % of control
endpoint: mean survival time, dose: 160.0 mg/kg/injection, schedule: Q01DX009 (ip), vehicle: saline with Tween-80
  T/C: 106 % of control

## CC(C)(O)C(=NCc1ccccc1)c1ccccc1
endpoint: mean survival time, dose: 100.0 mg/kg/injection, schedule: Q01DX001 (ip), vehicle: saline
  T/C: 102 % of control
endpoint: mean survival time, dose: 200.0 mg/kg/injection, schedule: Q01DX001 (ip), vehicle: saline
  T/C: 93 % of control
endpoint: mean survival time, dose: 400.0 mg/kg/injection, schedule: Q01DX001 (ip), vehicle: saline
  T/C: 104 % of control

## C1CCN(CN2CCCCC2)CC1
endpoint: mean survival time, dose: 12.5 mg/kg/injection, schedule: Q01DX009 (ip), vehicle: saline
  T/C: 103 % of control
endpoint: mean survival time, dose: 25.0 mg/kg/injection, schedule: Q01DX009 (ip), vehicle: saline
  T/C: 98 % of control
endpoint: mean survival time, dose: 25.0 mg/kg/injection, schedule: Q04DX003 (ip), vehicle: saline
  T/C: 90 % of control
[3]
  T/C: 97 % of control
endpoint: mean survival time, dose: 50.0 mg/kg/injection, schedule: Q04DX003 (ip), vehicle: saline
  T/C: 92 % of control

## CC(=O)[O][Sb]([CH3])([CH3])([CH3])[O]C(C)=O
[4]
  T/C: 110 % of control
[5]
  T/C: 98 % of control
[6]
  T/C: 103 % of control

## N#CC(c1ccccc1)C1CCCCC1 (centres undefined)
endpoint: mean survival time, dose: 75.0 mg/kg/injection, schedule: Q01DX009 (ip), vehicle: saline
  T/C: 95 % of control
endpoint: mean survival time, dose: 150.0 mg/kg/injection, schedule: Q01DX009 (ip), vehicle: saline
  T/C: 106 % of control
endpoint: mean survival time, dose: 300.0 mg/kg/injection, schedule: Q01DX009 (ip), vehicle: saline
  T/C: 108 % of control

## CC(=O)c1ccc2c3c(cccc13)CC2
endpoint: mean survival time, dose: 100.0 mg/kg/injection, schedule: Q01DX001 (ip), vehicle: saline with Tween-80
  T/C: 94 % of control
endpoint: mean survival time, dose: 200.0 mg/kg/injection, schedule: Q01DX001 (ip), vehicle: saline with Tween-80
  T/C: 96 % of control
endpoint: mean survival time, dose: 400.0 mg/kg/injection, schedule: Q01DX001 (ip), vehicle: saline with Tween-80
  T/C: 110 % of control

## O=C1C=C(Nc2ccc([N+](=O)[O-])cc2)c2ccccc2C1=O
[7]
  T/C: 95 % of control
[8]
  T/C: 91 % of control

## CN(C)C(=O)SCCSC(=O)N(C)C
[4]
  T/C: 106 % of control
[5]
  T/C: 92 % of control
[6]
  T/C: 95 % of control

## CN1C(=O)C=C(C=Nc2ccc(-c3ccccc3)cc2)C2CCCCC21 (centres undefined)
[9]
  T/C: 106 % of control
[10]
  T/C: 98 % of control
[11]
  T/C: 97 % of control

## Nc1ccc(I)cc1F
[9]
  T/C: 100 % of control
[10]
  T/C: 104 % of control
[11]
  T/C: 100 % of control

## O=NNc1ccccn1
endpoint: mean survival time, dose: 8.0 mg/kg/injection, schedule: Q04DX003 (ip), vehicle: saline
  T/C: 114 % of control
endpoint: median survival time, dose: 0.78 mg/kg/injection, schedule: Q01DX009 (ip), vehicle: saline
  T/C: 104 % of control
endpoint: median survival time, dose: 1.56 mg/kg/injection, schedule: Q01DX005 (ip), vehicle: saline
  T/C: 107 % of control
endpoint: median survival time, dose: 1.56 mg/kg/injection, schedule: Q01DX009 (ip), vehicle: saline
  T/C: 106 % of control
endpoint: median survival time, dose: 3.12 mg/kg/injection, schedule: Q01DX005 (ip), vehicle: saline
  T/C: 117 % of control and 110 % of control
endpoint: median survival time, dose: 3.12 mg/kg/injection, schedule: Q01DX009 (ip), vehicle: saline
  T/C: 110 % of control
endpoint: median survival time, dose: 3.13 mg/kg/injection, schedule: Q01DX005 (ip), vehicle: saline
  T/C: 122 % of control
endpoint: median survival time, dose: 6.25 mg/kg/injection, schedule: Q01DX005 (ip), vehicle: saline
  T/C: 117 % of control
endpoint: median survival time, dose: 6.25 mg/kg/injection, schedule: Q01DX009 (ip), vehicle: saline
  T/C: 119 % of control
endpoint: median survival time, dose: 12.5 mg/kg/injection, schedule: Q01DX005 (ip), vehicle: saline
  T/C: 160 % of control
endpoint: median survival time, dose: 25.0 mg/kg/injection, schedule: Q01DX005 (ip), vehicle: saline
  T/C: 184 % of control and 187 % of control
endpoint: median survival time, dose: 50.0 mg/kg/injection, schedule: Q01DX005 (ip), vehicle: saline
  T/C: 96 % of control and 103 % of control

## O=C1C(Cl)=C(Cl)C(=O)c2ccccc21
endpoint: mean survival time, dose: 5.0 mg/kg/injection, schedule: Q04DX003 (ip), vehicle: saline with Tween-80
  T/C: 98 % of control
endpoint: mean survival time, dose: 10.0 mg/kg/injection, schedule: Q04DX003 (ip), vehicle: saline with Tween-80
  T/C: 93 % of control
endpoint: mean survival time, dose: 20.0 mg/kg/injection, schedule: Q04DX003 (ip), vehicle: saline with Tween-80
  T/C: 101 % of control

## COc1cc(C)c(NC(C)=O)c([N+](=O)[O-])c1
[7]
  T/C: 100 % of control
[8]
  T/C: 95 % of control
endpoint: mean survival time, dose: 300.0 mg/kg/injection, schedule: Q01DX001 (ip), vehicle: saline
  T/C: 95 % of control

## CCCCc1ccc(-n2c(C)c(COC(=O)NC)c(COC(=O)NC)c2C)cc1
endpoint: mean survival time, dose: 1.56 mg/kg/injection, schedule: Q01DX009 (ip), vehicle: Klucel (hydroxypropylcellulose) (HPC)
  T/C: 113 % of control and 112 % of control
endpoint: mean survival time, dose: 3.12 mg/kg/injection, schedule: Q01DX009 (ip), vehicle: Klucel (hydroxypropylcellulose) (HPC)
  T/C: 117 % of control and 110 % of control
endpoint: mean survival time, dose: 6.25 mg/kg/injection, schedule: Q01DX009 (ip), vehicle: Klucel (hydroxypropylcellulose) (HPC)
  T/C: 117 % of control and 110 % of control
endpoint: mean survival time, dose: 12.5 mg/kg/injection, schedule: Q01DX009 (ip), vehicle: Klucel (hydroxypropylcellulose) (HPC)
  T/C: 124 % of control and 103 % of control
endpoint: mean survival time, dose: 25.0 mg/kg/injection, schedule: Q01DX009 (ip), vehicle: Klucel (hydroxypropylcellulose) (HPC)
  T/C: 120 % of control
endpoint: mean survival time, dose: 50.0 mg/kg/injection, schedule: Q01DX009 (ip), vehicle: Klucel (hydroxypropylcellulose) (HPC)
  T/C: 122 % of control and 109 % of control

## Cn1c(Cl)nc2c(Cl)nc(Cl)nc21
endpoint: mean survival time, dose: 50.0 mg/kg/injection, schedule: Q04DX003 (ip), vehicle: Klucel (hydroxypropylcellulose) (HPC)
  T/C: 100 % of control
endpoint: mean survival time, dose: 100.0 mg/kg/injection, schedule: Q04DX003 (ip), vehicle: Klucel (hydroxypropylcellulose) (HPC)
  T/C: 104 % of control
